Reference: the supplement of paper PMC4862054
“And” between values parts separate entries of the source, which are not always exact repeats. Equal entries are not always repeated.

What was measured:
Experiment in all cases: normalised viability (% of control), CellTiter-Blue; higher = more viable cells (about 100 = DMSO control)
Conditions in all cases: incubation time: 72 h
[1] = system: CAL-148
Procedure: (§1)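 DSRT, CellTiter-Blue viability, 72 h incubation. Signal is normalised to DMSO and benzethonium chloride controls. Value is the normalised response at dose 8.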

[2] = system: DU-4475
Procedure: as §1

[3] = system: CAL-85-1
Procedure: as §1

[4] = system: CAL-51
Procedure: as §1

[5] = system: MDA-MB-453
Procedure: as §1

[6] = system: HDQ-P1
Procedure: as §1

[7] = system: MDA-MB-231
Summary of the method: (§2)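 384-well plates were pre-loaded with compound in 5 µl medium before 20 µl of breast cancer cell suspension was seeded. Following 72 h incubation, 2.5 µl CellTiter-Blue reagent was added for 2 h at 37 °C. Fluorescence was read at 560/590 nm and plates were normalised to vehicle (100) and a positive kill control (0), checked by Z'-factor. Normalised viability is reported at a single listed concentration of the series.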

[8] = system: CAL-148; remark: listed apart in the source
Summary of the method: as §2

[9] = system: MDA-MB-436
Summary of the method: as §2

[10] = system: CAL-120
Summary of the method: as §2

[11] = system: BT-474
Summary of the method: as §2

[12] = system: HCC1143
Summary of the method: as §2

[13] = system: MDA-MB-468
Summary of the method: as §2

[14] = system: BT-549
Summary of the method: as §2

[15] = system: HCC1599
Summary of the method: as §2

[16] = system: SK-BR-3
Summary of the method: as §2

[17] = system: DU-4475; remark: listed apart in the source
Summary of the method: as §2

[18] = system: CAL-85-1; remark: listed apart in the source
Summary of the method: as §2

[19] = system: MFM-223
Summary of the method: as §2

[20] = system: CAL-51; remark: listed apart in the source
Summary of the method: as §2

[21] = system: MDA-MB-453; remark: listed apart in the source
Summary of the method: as §2

[22] = system: Hs578T
Summary of the method: as §2

[23] = system: HDQ-P1; remark: listed apart in the source
Summary of the method: as §2

[24] = system: CAL-148; remark: listed apart in the source
Procedure: (§3)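 DSRT, CellTiter-Blue viability, 72 h incubation. Signal is normalised to DMSO and benzethonium chloride controls. Value is the normalised response at dose 6.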

[25] = system: CAL-85-1; remark: listed apart in the source
Procedure: as §3

[26] = system: MDA-MB-453; remark: listed apart in the source
Procedure: as §3

Cc1ccc(-c2cc(C(F)(F)F)nn2-c2ccc(S(N)(=O)=O)cc2)cc1 [Celecoxib]
Conditions	normalised viability [%]
[1], 3000 nM	89.3
[2], 3000 nM	96.6
[3], 3000 nM	77.6
[4], 3000 nM	99.5
[5], 3000 nM	91.7
[6], 3000 nM	83.9
[7], 10 nM	96.2
[7], 1000 nM	86.7
[7], 10000 nM	99.6
[8], 3 nM	86.8
[8], 30 nM	97
[8], 100 nM	91.2
[9], 10 nM	99.3
[9], 1000 nM	77.8
[9], 10000 nM	80.1
[10], 10 nM	94.5
[10], 1000 nM	79.7
[10], 10000 nM	81.9
[11], 10 nM	111
[11], 1000 nM	97.3
[11], 10000 nM	105
[12], 10 nM	90.3
[12], 1000 nM	95.5
[12], 10000 nM	86
[13], 10 nM	96.6
[13], 1000 nM	107
[13], 10000 nM	95
[14], 10 nM	86.6
[14], 1000 nM	106
[14], 10000 nM	78.4
[15], 10 nM	99
[15], 1000 nM	95.7
[15], 10000 nM	65.6
[16], 10 nM	87.6
[16], 1000 nM	90.2
[16], 10000 nM	79.7
[17], 3 nM	83.8
[17], 30 nM	93.1
[17], 100 nM	106
[18], 3 nM	91.6
[18], 30 nM	75
[18], 100 nM	76.7
[19], 10 nM	95.9
[19], 1000 nM	92.1
[19], 10000 nM	86.3
[20], 3 nM	99
[20], 30 nM	98.3
[20], 100 nM	94.4
[21], 3 nM	111
[21], 30 nM	97.5
[21], 100 nM	103
[22], 10 nM	113
[22], 1000 nM	108
[22], 10000 nM	92.6
[23], 3 nM	104
[23], 30 nM	93.5
[23], 100 nM	85
[24], 300 nM	88
[25], 300 nM	70.2
[26], 300 nM	92.5

Nc1ncn([C@H]2C[C@H](O)[C@@H](CO)O2)c(=O)n1 [Decitabine]
Conditions	normalised viability
[1], 3000 nM	81.2% and 73.7%
[2], 3000 nM	69.8% and 78.9%
[3], 3000 nM	83% and 88.5%
[4], 3000 nM	98.4% and 79.8%
[5], 3000 nM	87% and 93.1%
[6], 3000 nM	88.6% and 93.3%
[7], 10 nM	86.9% and 92.8%
[7], 1000 nM	74% and 92.3%
[7], 10000 nM	69.8% and 71.6%
[8], 3 nM	92.8% and 76.2%
[8], 30 nM	91.4% and 85.8%
[8], 100 nM	86.2% and 96.3%
[9], 10 nM	85% and 75%
[9], 1000 nM	69.6% and 68.2%
[9], 10000 nM	70.5% and 71.4%
[10], 10 nM	88.1% and 89.4%
[10], 1000 nM	85.4% and 89%
[10], 10000 nM	58.3% and 62.3%
[11], 10 nM	109% and 104%
[11], 1000 nM	89.4% and 86.7%
[11], 10000 nM	95.1% and 79.7%
[12], 10 nM	82.7% and 80.8%
[12], 1000 nM	68.5% and 78.8%
[12], 10000 nM	56% and 59.8%
[13], 10 nM	109% and 102%
[13], 1000 nM	28.7% and 29.4%
[13], 10000 nM	27% and 29.1%
[14], 10 nM	94.6% and 101%
[14], 1000 nM	81.7% and 89.3%
[14], 10000 nM	57.7% and 65.1%
[15], 10 nM	112% and 107%
[15], 10000 nM	82% and 106%
[16], 10 nM	84.5% and 98.1%
[16], 1000 nM	90.2% and 88.1%
[16], 10000 nM	69.1% and 74.5%
[17], 3 nM	110% and 98.7%
[17], 30 nM	81.5% and 97.7%
[17], 100 nM	86.9% and 96.8%
[18], 3 nM	91.9% and 103%
[18], 30 nM	83.4% and 91.2%
[18], 100 nM	93.6% and 93.9%
[19], 10 nM	80.2% and 104%
[19], 1000 nM	84.7% and 102%
[19], 10000 nM	90.1% and 98.6%
[20], 3 nM	116% and 108%
[20], 30 nM	117% and 101%
[20], 100 nM	101% and 96.8%
[21], 3 nM	107% and 118%
[22], 10 nM	103% and 112%
[22], 1000 nM	92.5% and 114%
[22], 10000 nM	83.6% and 93.2%
[23], 30 nM	93% and 96.6%
[23], 100 nM	96.1% and 92%
[24], 300 nM	97.3% and 76%
[25], 300 nM	81.5% and 90.7%
[26], 300 nM	95.2% and 101%

Nc1ccccc1NC(=O)c1ccc(CNC(=O)OCc2cccnc2)cc1 [Entinostat]
Conditions	normalised viability [%]
[1], 3000 nM	58.7
[2], 3000 nM	103
[3], 3000 nM	53.7
[4], 3000 nM	108
[5], 3000 nM	50.3
[6], 3000 nM	80
[7], 10 nM	99.2
[7], 1000 nM	78.7
[7], 10000 nM	37.7
[8], 3 nM	85.4
[8], 30 nM	84.9
[8], 100 nM	86.7
[9], 10 nM	115
[9], 1000 nM	96
[9], 10000 nM	52.8
[10], 10 nM	90.1
[10], 1000 nM	57.9
[10], 10000 nM	30.8
[11], 10 nM	108
[11], 1000 nM	97
[11], 10000 nM	31.9
[12], 10 nM	84.5
[12], 1000 nM	89.6
[12], 10000 nM	31.2
[13], 10 nM	102
[13], 1000 nM	79.8
[13], 10000 nM	22.9
[14], 10 nM	110
[14], 1000 nM	102
[14], 10000 nM	61.4
[15], 10 nM	122
[15], 1000 nM	86.6
[15], 10000 nM	19.6
[16], 10 nM	108
[16], 1000 nM	45.2
[16], 10000 nM	2.8
[17], 3 nM	117
[17], 30 nM	117
[17], 100 nM	105
[18], 3 nM	98.1
[18], 30 nM	100
[18], 100 nM	99.6
[19], 10 nM	110
[19], 1000 nM	93.6
[19], 10000 nM	19.9
[20], 3 nM	116
[20], 30 nM	106
[20], 100 nM	109
[21], 3 nM	132
[21], 30 nM	130
[21], 100 nM	110
[22], 10 nM	100
[22], 1000 nM	97.6
[22], 10000 nM	25
[23], 3 nM	103
[23], 30 nM	110
[23], 100 nM	102
[24], 300 nM	86.9
[25], 300 nM	109
[26], 300 nM	103

O=C(/C=C/c1cccnc1)NCCCCC1CCN(C(=O)c2ccccc2)CC1 [FK-866]
Conditions	normalised viability [%]
[1], 300 nM	45.6
[2], 300 nM	2.9
[3], 300 nM	54
[4], 300 nM	34.6
[5], 300 nM	22.4
[6], 300 nM	51.6
[7], 1 nM	106
[7], 100 nM	27.9
[7], 1000 nM	23.2
[8], 0.3 nM	96.4
[8], 3 nM	94.5
[8], 10 nM	91.4
[9], 1 nM	96.2
[9], 100 nM	23.5
[9], 1000 nM	17.7
[10], 1 nM	107
[10], 100 nM	24.7
[10], 1000 nM	23.3
[11], 1 nM	112
[11], 100 nM	56.8
[11], 1000 nM	58.2
[12], 1 nM	85.6
[12], 100 nM	24.4
[12], 1000 nM	21.3
[13], 1 nM	91.9
[13], 100 nM	1.9
[13], 1000 nM	1.73
[14], 1 nM	95
[14], 100 nM	10.9
[14], 1000 nM	10.7
[15], 1 nM	116
[15], 100 nM	19.5
[15], 1000 nM	17
[16], 1 nM	101
[16], 100 nM	100
[16], 1000 nM	111
[17], 0.3 nM	104
[17], 3 nM	77.2
[17], 10 nM	86
[18], 0.3 nM	103
[18], 3 nM	97.7
[18], 10 nM	91.6
[19], 1 nM	108
[19], 100 nM	21.2
[19], 1000 nM	20.1
[20], 0.3 nM	113
[20], 3 nM	95.5
[20], 10 nM	72.8
[21], 0.3 nM	111
[21], 3 nM	31.7
[21], 10 nM	22.3
[22], 1 nM	99.9
[22], 100 nM	15
[22], 1000 nM	15.9
[23], 0.3 nM	109
[23], 3 nM	112
[23], 10 nM	98
[24], 30 nM	73.7
[25], 30 nM	72.4
[26], 30 nM	23.8
